Read-outs that look alike come from different tables or passages of the source.
What was measured:
Experiment in all cases: Test E pre-/postemergence plant response
Assay type in all cases: in vivo
[1] = system: galium (catchweed bedstraw, Galium aparine); settings: scale 0 to 100, read-out: Plant response rating, Galium; for pest or weed control at 16 g/ha: 16 g ai/ha; for pest or weed control at 31 g/ha: 31 g ai/ha; for pest or weed control at 62 g/ha: 62 g ai/ha; for pest or weed control at 125 g/ha: 125 g ai/ha
In short: (§1)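 Pre-emergence: seeds sown in silt loam soil and sprayed with test chemicals in a non-phytotoxic solvent/surfactant mix. Post-emergence: plants at 2–18 cm (1- to 4-leaf stage) in peat/vermiculite medium treated with the same formulation. Visual rating versus controls after 7–21 days, 0 (no effect) to 100 (complete control).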

[2] = system: wild radish (Raphanus raphanistrum); settings: scale 0 to 100, read-out: Plant response rating, Radish, Wild; for pest or weed control at 16 g/ha: 16 g ai/ha; for pest or weed control at 31 g/ha: 31 g ai/ha; for pest or weed control at 62 g/ha: 62 g ai/ha; for pest or weed control at 125 g/ha: 125 g ai/ha
In short: as §1

[3] = system: spring wheat (Triticum aestivum); settings: post-emergence, Postemergence, scale 0 to 100, read-out: Plant response rating, Wheat, Spring
In short: as §1

[4] = system: winter wheat (Triticum aestivum); settings: post-emergence, Postemergence, scale 0 to 100, read-out: Plant response rating, Wheat, Winter
In short: as §1

[5] = system: wild oat (Avena fatua); settings: scale 0 to 100, read-out: Plant response rating, Oat, Wild; for pest or weed control at 16 g/ha: 16 g ai/ha; for pest or weed control at 31 g/ha: 31 g ai/ha; for pest or weed control at 62 g/ha: 62 g ai/ha; for pest or weed control at 125 g/ha: 125 g ai/ha
In short: as §1

[6] = system: deadnettle (henbit deadnettle, Lamium amplexicaule); settings: scale 0 to 100, read-out: Plant response rating, Deadnettle; for pest or weed control at 16 g/ha: 16 g ai/ha; for pest or weed control at 31 g/ha: 31 g ai/ha; for pest or weed control at 62 g/ha: 62 g ai/ha; for pest or weed control at 125 g/ha: 125 g ai/ha
In short: as §1

[7] = system: oilseed rape (Brassica napus); settings: scale 0 to 100, read-out: Plant response rating, Oilseed Rape; for plant injury at 16 g/ha: 16 g ai/ha; for plant injury at 31 g/ha: 31 g ai/ha; for plant injury at 62 g/ha: 62 g ai/ha; for plant injury at 125 g/ha: 125 g ai/ha
In short: as §1

[8] = system: lambsquarters (Chenopodium album); settings: scale 0 to 100, read-out: Plant response rating, Lambsquarters; for pest or weed control at 16 g/ha: 16 g ai/ha; for pest or weed control at 31 g/ha: 31 g ai/ha; for pest or weed control at 62 g/ha: 62 g ai/ha; for pest or weed control at 125 g/ha: 125 g ai/ha
In short: as §1

[9] = system: green foxtail (Setaria viridis); settings: scale 0 to 100, read-out: Plant response rating, Foxtail, Green; for pest or weed control at 31 g/ha: 31 g ai/ha; for pest or weed control at 62 g/ha: 62 g ai/ha; for pest or weed control at 125 g/ha: 125 g ai/ha
In short: as §1

[10] = system: field violet (Viola arvensis); settings: scale 0 to 100, read-out: Plant response rating, Field Violet; for pest or weed control at 31 g/ha: 31 g ai/ha; for pest or weed control at 125 g/ha: 125 g ai/ha
In short: as §1

[11] = system: bluegrass (annual bluegrass, Poa annua); settings: scale 0 to 100, read-out: Plant response rating, Bluegrass; for pest or weed control at 16 g/ha: 16 g ai/ha; for pest or weed control at 31 g/ha: 31 g ai/ha; for pest or weed control at 62 g/ha: 62 g ai/ha; for pest or weed control at 125 g/ha: 125 g ai/ha
In short: as §1

[12] = post-emergence, 16 g ai/ha, Postemergence

FC(F)(F)c1cc(-c2ccccc2Oc2ncc(Cl)cn2)no1 [Compound 200, 5-chloro-2-[2-[5-(trifluoromethyl)-3-isoxazolyl]phenoxy]pyrimidine]
pest or weed control at 16 g/ha ([1]; post-emergence, Postemergence): 70% | pest or weed control at 31 g/ha ([1]; post-emergence, Postemergence): 75% | pest or weed control at 62 g/ha ([1]; post-emergence, Postemergence): 75% | pest or weed control at 125 g/ha ([1]; post-emergence, Postemergence): 90% | pest or weed control at 16 g/ha ([1]; pre-emergence, Preemergence): 15% | pest or weed control at 31 g/ha ([1]; pre-emergence, Preemergence): 25% | pest or weed control at 62 g/ha ([1]; pre-emergence, Preemergence): 55% | pest or weed control at 125 g/ha ([1]; pre-emergence, Preemergence): 100% | pest or weed control at 16 g/ha ([2]; post-emergence, Postemergence): 65% | pest or weed control at 31 g/ha ([2]; post-emergence, Postemergence): 80% | pest or weed control at 62 g/ha ([2]; post-emergence, Postemergence): 85% | pest or weed control at 125 g/ha ([2]; post-emergence, Postemergence): 95% | pest or weed control at 16 g/ha ([2]; pre-emergence, Preemergence): 80% | pest or weed control at 31 g/ha ([2]; pre-emergence, Preemergence): 70% | pest or weed control at 62 g/ha ([2]; pre-emergence, Preemergence): 95% | pest or weed control at 125 g/ha ([2]; pre-emergence, Preemergence): 95% | plant injury at 16 g/ha ([3]; 16 g ai/ha): 5% | plant injury at 31 g/ha ([3]; 31 g ai/ha): 10% | plant injury at 62 g/ha ([3]; 62 g ai/ha): 20% | plant injury at 125 g/ha ([3]; 125 g ai/ha): 35% | plant injury at 16 g/ha ([4]; 16 g ai/ha): 0% | plant injury at 31 g/ha ([4]; 31 g ai/ha): 5% | plant injury at 62 g/ha ([4]; 62 g ai/ha): 15% | plant injury at 125 g/ha ([4]; 125 g ai/ha): 25% | pest or weed control at 16 g/ha ([5]; post-emergence, Postemergence): 10% | pest or weed control at 31 g/ha ([5]; post-emergence, Postemergence): 20% | pest or weed control at 62 g/ha ([5]; post-emergence, Postemergence): 30% | pest or weed control at 125 g/ha ([5]; post-emergence, Postemergence): 35% | pest or weed control at 16 g/ha ([5]; pre-emergence, Preemergence): 0% | pest or weed control at 31 g/ha ([5]; pre-emergence, Preemergence): 0% | pest or weed control at 62 g/ha ([5]; pre-emergence, Preemergence): 30% | pest or weed control at 125 g/ha ([5]; pre-emergence, Preemergence): 75% | pest or weed control at 16 g/ha ([6]; post-emergence, Postemergence): 50% | pest or weed control at 31 g/ha ([6]; post-emergence, Postemergence): 60% | pest or weed control at 62 g/ha ([6]; post-emergence, Postemergence): 80% | pest or weed control at 125 g/ha ([6]; post-emergence, Postemergence): 90% | pest or weed control at 16 g/ha ([6]; pre-emergence, Preemergence): 60% | pest or weed control at 31 g/ha ([6]; pre-emergence, Preemergence): 90% | pest or weed control at 62 g/ha ([6]; pre-emergence, Preemergence): 100% | pest or weed control at 125 g/ha ([6]; pre-emergence, Preemergence): 100% | plant injury at 16 g/ha ([7]; post-emergence, Postemergence): 75% | plant injury at 31 g/ha ([7]; post-emergence, Postemergence): 85% | plant injury at 62 g/ha ([7]; post-emergence, Postemergence): 100% | plant injury at 125 g/ha ([7]; post-emergence, Postemergence): 100% | plant injury at 16 g/ha ([7]; pre-emergence, Preemergence): 60% | plant injury at 31 g/ha ([7]; pre-emergence, Preemergence): 100% | plant injury at 62 g/ha ([7]; pre-emergence, Preemergence): 100% | plant injury at 125 g/ha ([7]; pre-emergence, Preemergence): 100% | pest or weed control at 16 g/ha ([8]; post-emergence, Postemergence): 75% | pest or weed control at 31 g/ha ([8]; post-emergence, Postemergence): 85% | pest or weed control at 62 g/ha ([8]; post-emergence, Postemergence): 90% | pest or weed control at 125 g/ha ([8]; post-emergence, Postemergence): 95% | pest or weed control at 16 g/ha ([8]; pre-emergence, Preemergence): 10% | pest or weed control at 31 g/ha ([8]; pre-emergence, Preemergence): 85% | pest or weed control at 62 g/ha ([8]; pre-emergence, Preemergence): 100% | pest or weed control at 125 g/ha ([8]; pre-emergence, Preemergence): 100% | pest or weed control at 16 g/ha [9, 12]: 25% | pest or weed control at 31 g/ha ([9]; post-emergence, Postemergence): 35% | pest or weed control at 62 g/ha ([9]; post-emergence, Postemergence): 45% | pest or weed control at 125 g/ha ([9]; post-emergence, Postemergence): 55% | pest or weed control at 31 g/ha ([9]; pre-emergence, Preemergence): 25% | pest or weed control at 62 g/ha ([9]; pre-emergence, Preemergence): 100% | pest or weed control at 125 g/ha ([9]; pre-emergence, Preemergence): 100% | pest or weed control at 16 g/ha [10, 12]: 70% | pest or weed control at 31 g/ha ([10]; post-emergence, Postemergence): 80% | pest or weed control at 62 g/ha ([10]; post-emergence, 62 g ai/ha, Postemergence): 75% | pest or weed control at 125 g/ha ([10]; post-emergence, Postemergence): 95% | pest or weed control at 31 g/ha ([10]; pre-emergence, Preemergence): 50% | pest or weed control at 125 g/ha ([10]; pre-emergence, Preemergence): 100% | pest or weed control at 16 g/ha ([11]; post-emergence, Postemergence): 20% | pest or weed control at 31 g/ha ([11]; post-emergence, Postemergence): 35% | pest or weed control at 62 g/ha ([11]; post-emergence, Postemergence): 55% | pest or weed control at 125 g/ha ([11]; post-emergence, Postemergence): 70% | pest or weed control at 16 g/ha ([11]; pre-emergence, Preemergence): 20% | pest or weed control at 31 g/ha ([11]; pre-emergence, Preemergence): 70% | pest or weed control at 62 g/ha ([11]; pre-emergence, Preemergence): 95% | pest or weed control at 125 g/ha ([11]; pre-emergence, Preemergence): 100%

From patent publication US10131652B2, “Pyrimidinyloxy benzene derivatives as herbicides” (E. I. DU PONT DE NEMOURS AND COMPANY, priority 2014, dated 2018)
